Source: publication PMC6409085, “Three odorant-binding proteins are involved in the behavioral response of Sogatella furcifera to rice plant volatiles” (PeerJ, 2019)
Where “and” joins values, the source holds several entries; their conditions need not be identical. Identical values can stand only once.

How the values were obtained:
Experiment in all cases: biochemical
Assay type in all cases: binding
SfurOBP11 = SfurOBP11 (Sogatella furcifera, UniProt V5T6E3)
Experimental: (§1) Thirty-six rice odorants ([He et al., 2014]; [Wang et al., 2017]) and 1-N-phenyl-naphthylamine (1-NPN) were purchased from Sigma-Aldrich (St Louis, MO, USA). These odorants and 1-NPN were dissolved in high-performance liquid chromatography (HPLC) purify grade methanol for 1.0 mM as work solution.
(§2) Fluorescence competitive binding assays were performed on Tecan Spark 10M (Tecan Group Ltd., Männedorf, Switzerland) with the F96 Black ELIAS Plate (Sangon) ([Khuhro et al., 2017]; [Liu et al., 2017]). The solutions were excited at 337 nm and emission spectra were recorded between 390 and 490 nm. First, to test the binding constants of 1-NPN to the SfurOBPs, a 2.0 µM solution of protein in 50 mM Tris-HCl (pH = 7.4) was titrated with 1 mM 1-NPN to achieve virous concentrations. Next, the competitive binding of each odorant was measured using the 1-NPN as fluorescent reporter and odorant as competitor. The concentrations of protein and 1-NPN were both 2.0 µM, the odorant added after protein and 1-NPN added into the well of ELIAS Plate for 2 min. The final concentrations of each competitor were 2, 4, 6, 8, 10, 12, 14, 16, 18 and 20 µM. After 2 min of odorant added, the fluorescence intensity was measured and recorded. The volume of mixed solution in each well was maintained at 250 µL. Each interaction was performed in triplicates.
(§3) GraphPad Prism 7.0 software (GraphPad Software, Inc., La Jolla, CA, USA) was used to calculated and generated the binding constants (K1−NPN) of 1-NPN to SfurOBPs and relative Scatchard plots ([Ban et al., 2003]; [Li et al., 2016]). Dissociation constant (Ki) of each odorant to SfurOBP was computed from the corresponding IC50 value (the half maximal inhibitory concentration), using the following equation: Ki=[IC50]/(1 + [1-NPN]/K1−NPN), where [1-NPN] is the free concentration of 1-NPN and K1−NPN is the dissociation constant of the complex protein/1-NPN.

SfurOBP2 = SfurOBP2 (Sogatella furcifera, UniProt V5T759)
Experimental: as §1, §2, §3

SfurOBP3 = SfurOBP3 (Sogatella furcifera, UniProt V5T818); conditions: for Fluorescence competitive binding assay, fluorescence intensity: OBP3, three replicate columns
Experimental: as §1, §2, §3

SfurOBP1 = SfurOBP1 (Sogatella furcifera, UniProt V5T8N5); conditions: for Fluorescence competitive binding assay, fluorescence intensity: OBP1, three replicate columns
Experimental: as §1, §2, §3

SfurOBP3, sequence (V5T818 entry or part of it): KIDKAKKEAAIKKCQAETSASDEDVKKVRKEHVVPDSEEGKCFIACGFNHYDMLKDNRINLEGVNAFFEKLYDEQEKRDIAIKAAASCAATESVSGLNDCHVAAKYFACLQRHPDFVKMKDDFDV
SfurOBP1, sequence (V5T8N5 entry or part of it): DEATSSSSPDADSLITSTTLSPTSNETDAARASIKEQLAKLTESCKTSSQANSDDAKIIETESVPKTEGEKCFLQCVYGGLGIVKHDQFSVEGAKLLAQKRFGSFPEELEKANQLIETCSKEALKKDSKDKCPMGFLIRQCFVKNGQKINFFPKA
SfurOBP11, sequence (V5T6E3 entry or part of it): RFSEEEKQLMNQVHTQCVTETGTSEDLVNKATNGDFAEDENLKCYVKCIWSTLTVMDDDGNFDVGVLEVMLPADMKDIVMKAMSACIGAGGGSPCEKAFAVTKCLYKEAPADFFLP
SfurOBP2, sequence (V5T759 entry or part of it): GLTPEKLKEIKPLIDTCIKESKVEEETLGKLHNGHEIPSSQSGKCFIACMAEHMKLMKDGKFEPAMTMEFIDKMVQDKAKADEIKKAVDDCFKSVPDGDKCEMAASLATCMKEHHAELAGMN

Compound: c1ccc2ccccc2c1 [naphthalene]
- IC50 (SfurOBP11): > 20 µM
- Fluorescence intensity, fluorescence competitive binding assay, OBP11 (SfurOBP11; ligand concentration 2, replicate 1): 34403
- Fluorescence intensity, fluorescence competitive binding assay, OBP11 (SfurOBP11; ligand concentration 2, replicate 2): 32473
- Fluorescence intensity, fluorescence competitive binding assay, OBP11 (SfurOBP11; ligand concentration 2, replicate 3): 34898
- Fluorescence intensity, fluorescence competitive binding assay, OBP11 (SfurOBP11; ligand concentration 4, replicate 1): 34130
- Fluorescence intensity, fluorescence competitive binding assay, OBP11 (SfurOBP11; ligand concentration 4, replicate 2): 34738
- Fluorescence intensity, fluorescence competitive binding assay, OBP11 (SfurOBP11; ligand concentration 4, replicate 3): 32492
- Fluorescence intensity, fluorescence competitive binding assay, OBP11 (SfurOBP11; ligand concentration 6, replicate 1): 35498
- Fluorescence intensity, fluorescence competitive binding assay, OBP11 (SfurOBP11; ligand concentration 6, replicate 2): 33550
- Fluorescence intensity, fluorescence competitive binding assay, OBP11 (SfurOBP11; ligand concentration 6, replicate 3): 32552
- Fluorescence intensity, fluorescence competitive binding assay, OBP11 (SfurOBP11; ligand concentration 8, replicate 1): 32155
- Fluorescence intensity, fluorescence competitive binding assay, OBP11 (SfurOBP11; ligand concentration 8, replicate 2): 35048
- Fluorescence intensity, fluorescence competitive binding assay, OBP11 (SfurOBP11; ligand concentration 8, replicate 3): 30051
- Fluorescence intensity, fluorescence competitive binding assay, OBP11 (SfurOBP11; ligand concentration 10, replicate 1): 30839
- Fluorescence intensity, fluorescence competitive binding assay, OBP11 (SfurOBP11; ligand concentration 10, replicate 2): 29352
- Fluorescence intensity, fluorescence competitive binding assay, OBP11 (SfurOBP11; ligand concentration 10, replicate 3): 29736
- Fluorescence intensity, fluorescence competitive binding assay, OBP11 (SfurOBP11; ligand concentration 12, replicate 1): 30215
- Fluorescence intensity, fluorescence competitive binding assay, OBP11 (SfurOBP11; ligand concentration 12, replicate 2): 28382
- Fluorescence intensity, fluorescence competitive binding assay, OBP11 (SfurOBP11; ligand concentration 12, replicate 3): 27824
- Fluorescence intensity, fluorescence competitive binding assay, OBP11 (SfurOBP11; ligand concentration 14, replicate 1): 26586
- Fluorescence intensity, fluorescence competitive binding assay, OBP11 (SfurOBP11; ligand concentration 14, replicate 2): 26869
- Fluorescence intensity, fluorescence competitive binding assay, OBP11 (SfurOBP11; ligand concentration 14, replicate 3): 27309
- Fluorescence intensity, fluorescence competitive binding assay, OBP11 (SfurOBP11; ligand concentration 16, replicate 1): 25698
- Fluorescence intensity, fluorescence competitive binding assay, OBP11 (SfurOBP11; ligand concentration 16, replicate 2): 25045
- Fluorescence intensity, fluorescence competitive binding assay, OBP11 (SfurOBP11; ligand concentration 16, replicate 3): 25361
- Fluorescence intensity, fluorescence competitive binding assay, OBP11 (SfurOBP11; ligand concentration 18, replicate 1): 25004
- Fluorescence intensity, fluorescence competitive binding assay, OBP11 (SfurOBP11; ligand concentration 18, replicate 2): 25141
- Fluorescence intensity, fluorescence competitive binding assay, OBP11 (SfurOBP11; ligand concentration 18, replicate 3): 24946
- Fluorescence intensity, fluorescence competitive binding assay, OBP11 (SfurOBP11; ligand concentration 20, replicate 1): 23792
- Fluorescence intensity, fluorescence competitive binding assay, OBP11 (SfurOBP11; ligand concentration 20, replicate 2): 23804
- Fluorescence intensity, fluorescence competitive binding assay, OBP11 (SfurOBP11; ligand concentration 20, replicate 3): 23815
- IC50 (SfurOBP2): > 20 µM
- Fluorescence competitive binding assay, OBP2 (raw fluorescence reading) (SfurOBP2; ligand concentration 2 (unit not given), replicate column 1 of 3): 21005
- Fluorescence competitive binding assay, OBP2 (raw fluorescence reading) (SfurOBP2; ligand concentration 2 (unit not given), replicate column 2 of 3): 21502
- Fluorescence competitive binding assay, OBP2 (raw fluorescence reading) (SfurOBP2; ligand concentration 2 (unit not given), replicate column 3 of 3): 19080
- Fluorescence competitive binding assay, OBP2 (raw fluorescence reading) (SfurOBP2; ligand concentration 4 (unit not given), replicate column 1 of 3): 24365
- Fluorescence competitive binding assay, OBP2 (raw fluorescence reading) (SfurOBP2; ligand concentration 4 (unit not given), replicate column 2 of 3): 22710
- Fluorescence competitive binding assay, OBP2 (raw fluorescence reading) (SfurOBP2; ligand concentration 4 (unit not given), replicate column 3 of 3): 24844
- Fluorescence competitive binding assay, OBP2 (raw fluorescence reading) (SfurOBP2; ligand concentration 6 (unit not given), replicate column 1 of 3): 22191
- Fluorescence competitive binding assay, OBP2 (raw fluorescence reading) (SfurOBP2; ligand concentration 6 (unit not given), replicate column 2 of 3): 22417
- Fluorescence competitive binding assay, OBP2 (raw fluorescence reading) (SfurOBP2; ligand concentration 6 (unit not given), replicate column 3 of 3): 22519
- Fluorescence competitive binding assay, OBP2 (raw fluorescence reading) (SfurOBP2; ligand concentration 8 (unit not given), replicate column 1 of 3): 23158
- Fluorescence competitive binding assay, OBP2 (raw fluorescence reading) (SfurOBP2; ligand concentration 8 (unit not given), replicate column 2 of 3): 21663
- Fluorescence competitive binding assay, OBP2 (raw fluorescence reading) (SfurOBP2; ligand concentration 8 (unit not given), replicate column 3 of 3): 20781
- Fluorescence competitive binding assay, OBP2 (raw fluorescence reading) (SfurOBP2; ligand concentration 10 (unit not given), replicate column 1 of 3): 20596
- Fluorescence competitive binding assay, OBP2 (raw fluorescence reading) (SfurOBP2; ligand concentration 10 (unit not given), replicate column 2 of 3): 20292
- Fluorescence competitive binding assay, OBP2 (raw fluorescence reading) (SfurOBP2; ligand concentration 10 (unit not given), replicate column 3 of 3): 20233
- Fluorescence competitive binding assay, OBP2 (raw fluorescence reading) (SfurOBP2; ligand concentration 12 (unit not given), replicate column 1 of 3): 19697
- Fluorescence competitive binding assay, OBP2 (raw fluorescence reading) (SfurOBP2; ligand concentration 12 (unit not given), replicate column 2 of 3): 18134
- Fluorescence competitive binding assay, OBP2 (raw fluorescence reading) (SfurOBP2; ligand concentration 12 (unit not given), replicate column 3 of 3): 19454
- Fluorescence competitive binding assay, OBP2 (raw fluorescence reading) (SfurOBP2; ligand concentration 14 (unit not given), replicate column 1 of 3): 17572
- Fluorescence competitive binding assay, OBP2 (raw fluorescence reading) (SfurOBP2; ligand concentration 14 (unit not given), replicate column 2 of 3): 18013
- Fluorescence competitive binding assay, OBP2 (raw fluorescence reading) (SfurOBP2; ligand concentration 14 (unit not given), replicate column 3 of 3): 17420
- Fluorescence competitive binding assay, OBP2 (raw fluorescence reading) (SfurOBP2; ligand concentration 16 (unit not given), replicate column 1 of 3): 16408
- Fluorescence competitive binding assay, OBP2 (raw fluorescence reading) (SfurOBP2; ligand concentration 16 (unit not given), replicate column 2 of 3): 15544
- Fluorescence competitive binding assay, OBP2 (raw fluorescence reading) (SfurOBP2; ligand concentration 16 (unit not given), replicate column 3 of 3): 15169
- Fluorescence competitive binding assay, OBP2 (raw fluorescence reading) (SfurOBP2; ligand concentration 18 (unit not given), replicate column 1 of 3): 18334
- Fluorescence competitive binding assay, OBP2 (raw fluorescence reading) (SfurOBP2; ligand concentration 18 (unit not given), replicate column 2 of 3): 23371
- Fluorescence competitive binding assay, OBP2 (raw fluorescence reading) (SfurOBP2; ligand concentration 18 (unit not given), replicate column 3 of 3): 18960
- Fluorescence competitive binding assay, OBP2 (raw fluorescence reading) (SfurOBP2; ligand concentration 20 (unit not given), replicate column 1 of 3): 17296
- Fluorescence competitive binding assay, OBP2 (raw fluorescence reading) (SfurOBP2; ligand concentration 20 (unit not given), replicate column 2 of 3): 16882
- Fluorescence competitive binding assay, OBP2 (raw fluorescence reading) (SfurOBP2; ligand concentration 20 (unit not given), replicate column 3 of 3): 15413
- IC50 (SfurOBP3): > 20 µM
- Fluorescence competitive binding assay, fluorescence intensity (SfurOBP3; ligand concentration 2): 99229 and 86961 and 92264
- Fluorescence competitive binding assay, fluorescence intensity (SfurOBP3; ligand concentration 4): 97193 and 95605 and 87600
- Fluorescence competitive binding assay, fluorescence intensity (SfurOBP3; ligand concentration 6): 102900 and 102445 and 98166
- Fluorescence competitive binding assay, fluorescence intensity (SfurOBP3; ligand concentration 8): 100522 and 107674 and 104095
- Fluorescence competitive binding assay, fluorescence intensity (SfurOBP3; ligand concentration 10): 49630 and 50618 and 48648
- Fluorescence competitive binding assay, fluorescence intensity (SfurOBP3; ligand concentration 12): 46251 and 47333 and 45186
- Fluorescence competitive binding assay, fluorescence intensity (SfurOBP3; ligand concentration 14): 39681 and 44579 and 42492
- Fluorescence competitive binding assay, fluorescence intensity (SfurOBP3; ligand concentration 16): 42940 and 41521 and 40287
- Fluorescence competitive binding assay, fluorescence intensity (SfurOBP3; ligand concentration 18): 51522 and 51973 and 51748
- Fluorescence competitive binding assay, fluorescence intensity (SfurOBP3; ligand concentration 20): 50731 and 60428 and 55580
- IC50 (SfurOBP1): > 20 µM
- Fluorescence competitive binding assay, fluorescence intensity (SfurOBP1; ligand concentration 2 (μM)): 5483 and 5608 and 5501
- Fluorescence competitive binding assay, fluorescence intensity (SfurOBP1; ligand concentration 4 (μM)): 5830 and 5745 and 5659
- Fluorescence competitive binding assay, fluorescence intensity (SfurOBP1; ligand concentration 6 (μM)): 5799 and 5826 and 5942
- Fluorescence competitive binding assay, fluorescence intensity (SfurOBP1; ligand concentration 8 (μM)): 6002 and 5983 and 5964
- Fluorescence competitive binding assay, fluorescence intensity (SfurOBP1; ligand concentration 10 (μM)): 5834 and 6388 and 6102
- Fluorescence competitive binding assay, fluorescence intensity (SfurOBP1; ligand concentration 12 (μM)): 6285 and 6121 and 6209
- Fluorescence competitive binding assay, fluorescence intensity (SfurOBP1; ligand concentration 14 (μM)): 6231 and 6194 and 6297
- Fluorescence competitive binding assay, fluorescence intensity (SfurOBP1; ligand concentration 16 (μM)): 6398 and 6743 and 6035
- Fluorescence competitive binding assay, fluorescence intensity (SfurOBP1; ligand concentration 18 (μM)): 6548 and 7178 and 7195
- Fluorescence competitive binding assay, fluorescence intensity (SfurOBP1; ligand concentration 20 (μM)): 7389 and 7177 and 6994
